Measured values taken from patent US20030229030A1, “Method of treating interleukin-6-mediated inflammatory diseases” (priority 2002, published 2003).
Several values for one entry are separate records, joined by “and”; a condition that tells them apart may be missing. Identical values can stand only once. Marks after values point to notes of the source that are not given here. Ends that are not written are not given here.

Legend:
[1] = tested on: IL-6 secretion from hCBMC; experiment: IL-6 secretion from human cord blood-derived mast cells (hCBMC), ELISA; assay type: cell-based; settings: for secretion of IL-6 (FIG. 3): n=4
Description: (§1) Human cord blood-derived mast cells (HCBMC) were grown from CD34+ progenitor mononuclear umbilical cells isolated from umbilical cord blood by positive selection of AC133 (CD 133+/CD34+high) cells by magnetic cell sorting (Miltenyi Biotec, Auburn, Calif.). CD34+ cells were then cultured in Isocove's Modified Dulbecco's Medium (1MDM) containing 100 ng/ml Stem Cell Factor (from Amgen, Thousand Oaks, Calif.) plus test components in 10% FBS at 37° C. in 5% CO2 balanced air. By 10 weeks, 95% of the cells in culture could be identified as mast cells by immuno-staining for tryptase. hCBMC were washed three times in PBS and resuspended in culture medium (1×10^5 cells/200 ul sample). Test substances, e.g., IL-1 were added and cells were incubated at 37° C. in 5% CO2 for six hours for dose-response experiments or for the indicated times in time-course experiments. IL-6 and tryptase were measured in cell-free supernatant fluids by ELISA (R&D Systems, Minneapolis, Minn.) and fluoroenzymeimmunoassay (Pharmacia, Uppsala, Sweden), respectively.
(§2) Dose-response of IL-6 and tryptase secretion from hCBMC and HMC-1 cells were tested after stimulation for six hours with indicated concentrations of IL-1 or other stimuli. Time-course of IL.6 production induced by 50 ng/ml of IL-1 a from CBMC or by 10 ng/ml IL-1 from HMC-1 cells could be tested.
The data in general represent means +/− standard error of the mean from 3 to 4 experiments done in duplicate for each cell type used.

[2] = tested on: IL-6 production from rat peritoneal macrophages; experiment: IL-6 production from LPS-stimulated rat peritoneal macrophages; assay type: cell-based; settings: rat macrophages stimulated by LPS; quercetin dihydrate 100 μM, 10 mins prior to stimulus, 6 hrs
From the text: (§3) In this experiment, the effect of quercetin on the production of IL-6 and TNF-a from rat peritoneal macrophages and human mast cells that are involved in inflammation was studied. [table]

[3] = tested on: TNF-α production from rat peritoneal macrophages; experiment: TNF-α production from LPS-stimulated rat peritoneal macrophages; assay type: cell-based; settings: rat macrophages stimulated by LPS; quercetin dihydrate 100 μM, 10 mins prior to stimulus, 6 hrs
From the text: as §3

[4] = tested on: TNF-α production from human mast cells (hCBMC); experiment: TNF-α production from hCBMC stimulated by IgE and anti-IgE; assay type: cell-based; settings: quercetin dihydrate 100 μM, 10 mins prior to stimulus, 6 hrs
From the text: as §3

[5] = tested on: IL-6 secretion from human mast cells; experiment: IL-6 production and secretion from human mast cells, quercetin alone or with IL-1; assay type: cell-based
Description: as §1
In this experiment, the effects of quercetin, alone or together with IL-1, on the production and secretion of IL-6 from human mast cells was studied.

[6] = tested on: IL-6 secretion from HMC-1 cells; experiment: IL-6 secretion from HMC-1 human leukemic mast cells; assay type: cell-based; settings: quercetin 10 μM, IL-10 2 ng/ml
Description: Human leukemic mast cells (HMC-1) was obtained from Dr. Butterfield (Mayo Clinic, Rochester, Minn.), and cultured in IMDM medium supplemented with 10% FBS, PBS and 2 μM alpha.thioglycerol. HCBMC or HMC-I cells 2×10^5/200 μl sample were stimulated in full culture medium as indicated.
as §2
The effect of IL-10 on HMC-1 leukemic cells producing IL-6, especially cells stimulated by IL-1 that induces selective release of IL-6, was studied alone or together with a flavonoid compound.

[7] = tested on: tryptase secretion from hCBMC; experiment: Tryptase secretion from hCBMC mast cell granules, fluoroenzymeimmunoassay; assay type: cell-based, human; settings: stimulus alone: CRH 5 × 10^−5M, IL-1 50 ng/ml, anti-IgE 10 μg/ml
Description: as §1
Dose-response of IL-6 and tryptase secretion from hCBMC and HMC-1 cells were tested after stimulation for six hours with indicated concentrations of IL-1 or other stimuli. Time-course of IL.6 production induced by 50 ng/ml of IL-1 a from CBMC or by 10 ng/ml IL-1 from HMC-1 cells could be tested. […]

[8] = hCBMC + anti-IgE, azelastine 1 μM, quercetin 10 μM
[9] = hCBMC, substance alone: anti-IgE, azelastine 1 μM, quercetin 10 μM
[10] = IL-1 50 ng/ml + quercetin 10 μM
[11] = IL-1 50 ng/ml + quercetin 100 μM
[12] = HMC-1, substance alone: IL-1 50 ng/ml

## CN1CCCC(n2nc(Cc3ccc(Cl)cc3)c3ccccc3c2=O)CC1 (centres unmarked) [Azelastine, reference compound]
[1]; azelastine at concentrations below 1 μM
  inhibition of IL-6 secretion from hCBMC: ineffective
[1]; [8]
  IL-6 (pg/ml/5 × 105cells): 30.6 pg/ml/5 × 105cells
[1]; hCBMC + anti-IgE, dose-dependent
  inhibition of IL-6 secretion from hCBMC (FIG. 4): potent inhibitor
[1]; hCBMC, azelastine 60 μM
  IL-6 secretion (FIG. 4): below control levels
[1]; [9]
  IL-6 (pg/ml/5 × 105cells): 11.9 pg/ml/5 × 105cells

## O=c1c(O)c(-c2ccc(O)cc2O)oc2cc(O)cc(O)c12 [Morin, reference compound]
[1]; hCBMC + anti-IgE, morin (100-0.01 μM listed)
  secretion of IL-6 (FIG. 3): only a small effect

## O=c1c(O)c(-c2ccc(O)c(O)c2)oc2cc(O)cc(O)c12 [Quercetin, quercetin]
[2]
  Inhibition (% of total) IL-6: 96.3 % of total
[3]
  Inhibition (% of total) TNF-α: 88.3 % of total
[1]; [8]
  IL-6 (pg/ml/5 × 105cells): 21.4 pg/ml/5 × 105cells
  Inhibition (% total): 32.9 % total
[1]; hCBMC + anti-IgE, three lower concentrations of quercetin (1, 0.1, 0.01 μM)
  secretion of IL-6 (FIG. 3): only slightly reduced
[1]; hCBMC + anti-IgE, two highest concentrations of quercetin (100, 10 μM)
  secretion of IL-6 (FIG. 3): greatly reduced
[1]; hCBMC stimulated by IgE and anti-IgE, quercetin dihydrate 100 μM, 10 mins prior to stimulus, 6 hrs
  Inhibition (% of total) IL-6: 95.8 % of total
[1]; hCBMC, 0.1 mM quercetin 30 mins, then anti-IgE 6 hrs, replicated 6 times
  secretion of IL-6 from mast cells stimulated by anti-IgE: profoundly inhibited
[1]; hCBMC, quercetin 0.1 mM alone, no anti-IgE
  IL-6 (pg/10^6 cells): 10.8 pg/10^6 cells
[1]; hCBMC, quercetin 0.1 mM for 10 mins prior to addition of anti-IgE
  IL-6 (pg/10^6 cells): 50.5 pg/10^6 cells
[1]; [9]
  IL-6 (pg/ml/5 × 105cells): 9.8 pg/ml/5 × 105cells
[4]
  Inhibition (% of total) TNF-α: 78.3 % of total
[5]; [10]
  IL-6 (pg/ml/5 × 10^5 cells): 300.1 pg/ml/5 × 10^5 cells
  Inhibition (% total): 32.7* % total
[5]; [11]
  IL-6 (pg/ml/5 × 10^5 cells): 150.4 pg/ml/5 × 10^5 cells
  Inhibition (% total): 82.0* % total
[5]; quercetin 10 μM alone
  IL-6 (pg/ml/5 × 10^5 cells): 74.9 pg/ml/5 × 10^5 cells
[5]; quercetin 100 μM alone
  IL-6 (pg/ml/5 × 10^5 cells): 56.1 pg/ml/5 × 10^5 cells
[6]; HMC-1 + IL-1 (50 ng/ml)
  IL-6 (pg/ml/10^5 cells): 299.0 pg/ml/10^5 cells
  Inhibition (% total): 5.37 % total
[6]; [12]
  IL-6 (pg/ml/10^5 cells): 79.8 pg/ml/10^5 cells

## CRH: corticotropin-releasing hormone (SEEPPISLDLTFHLLREVLEMARAEQLAQQAHSNRKLMEII; ends and bridges not checked; UniProt P06850 154-194, looked up)
[1]; hCBMC, stimulus alone: CRH 5 × 10^−5M, IL-1 50 ng/ml, anti-IgE 10 μg/ml
  IL-6 (pg/ml/5 × 10^6 cells): 33.3 +/− 3.5 pg/ml/5 × 10^6 cells
[7]
  Tryptase % total: 4.20 % total and 4.26 % total

B1: IL-10: interleukin-10 (protein, UniProt P22301 19-178, looked up)
Interleukin-10: SPGQGTQSENSCTHFPGNLPNMLRDLRDAFSRVKTFFQMKDQLDNLLLKESLLEDFKGYLGCQALSEMIQFYLEEVMPQAENQDPDIKAHVNSLGENLKTLRLRLRRCHRFLPCENKSKAVEQVKNAFNKLQEKGIYKAMSEFDIFINYIEAYMTMKIRN
[6]; HMC-1 + IL-1 (50 ng/ml)
  IL-6 (pg/ml/10^5 cells): 275.9 pg/ml/10^5 cells
  Inhibition (% total): 31.32 % total
[6]; [12]
  IL-6 (pg/ml/10^5 cells): 85.6 pg/ml/10^5 cells
